From patent US20090311217A1, “3-SUBSTITUTED-1H-INDOLE COMPOUNDS, THEIR USE AS MTOR KINASE AND PI3 KINASE INHIBITORS, AND THEIR SYNTHESES” (priority 2008, published 2009)

Experiments:
Assay type in all cases: biochemical
[1] = target: T1, human TOR (Homo sapiens, UniProt P42345); experiment: mTOR enzyme assay (DELFIA, His6-S6K substrate); conditions: read-out: mTOR Kinase Avg. IC50
T1 construct: FLAG

[2] = target: PI3K-alpha (Homo sapiens, UniProt P42336); experiment: PI3K-alpha fluorescence polarization assay; conditions: read-out: PI3Kα Avg. IC50
[3] = target: PI3K-gamma (Homo sapiens, UniProt P48736); experiment: PI3K-gamma fluorescence polarization assay; conditions: PI3Kγ Avg. IC50
Method in brief: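 Each isoform (5 ng) phosphorylated 2.5 μM diC8-PI(4,5)P2 at 25 μM ATP for one hour at 25° C in the presence of inhibitor. Reactions were then stopped with EDTA, and product was detected by fluorescence polarization using a GST-GRP1 PH domain and a BODIPY-TMR-labelled IP4 tracer.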

Sequence of PI3K-alpha (P42336 whole entry, species assumed): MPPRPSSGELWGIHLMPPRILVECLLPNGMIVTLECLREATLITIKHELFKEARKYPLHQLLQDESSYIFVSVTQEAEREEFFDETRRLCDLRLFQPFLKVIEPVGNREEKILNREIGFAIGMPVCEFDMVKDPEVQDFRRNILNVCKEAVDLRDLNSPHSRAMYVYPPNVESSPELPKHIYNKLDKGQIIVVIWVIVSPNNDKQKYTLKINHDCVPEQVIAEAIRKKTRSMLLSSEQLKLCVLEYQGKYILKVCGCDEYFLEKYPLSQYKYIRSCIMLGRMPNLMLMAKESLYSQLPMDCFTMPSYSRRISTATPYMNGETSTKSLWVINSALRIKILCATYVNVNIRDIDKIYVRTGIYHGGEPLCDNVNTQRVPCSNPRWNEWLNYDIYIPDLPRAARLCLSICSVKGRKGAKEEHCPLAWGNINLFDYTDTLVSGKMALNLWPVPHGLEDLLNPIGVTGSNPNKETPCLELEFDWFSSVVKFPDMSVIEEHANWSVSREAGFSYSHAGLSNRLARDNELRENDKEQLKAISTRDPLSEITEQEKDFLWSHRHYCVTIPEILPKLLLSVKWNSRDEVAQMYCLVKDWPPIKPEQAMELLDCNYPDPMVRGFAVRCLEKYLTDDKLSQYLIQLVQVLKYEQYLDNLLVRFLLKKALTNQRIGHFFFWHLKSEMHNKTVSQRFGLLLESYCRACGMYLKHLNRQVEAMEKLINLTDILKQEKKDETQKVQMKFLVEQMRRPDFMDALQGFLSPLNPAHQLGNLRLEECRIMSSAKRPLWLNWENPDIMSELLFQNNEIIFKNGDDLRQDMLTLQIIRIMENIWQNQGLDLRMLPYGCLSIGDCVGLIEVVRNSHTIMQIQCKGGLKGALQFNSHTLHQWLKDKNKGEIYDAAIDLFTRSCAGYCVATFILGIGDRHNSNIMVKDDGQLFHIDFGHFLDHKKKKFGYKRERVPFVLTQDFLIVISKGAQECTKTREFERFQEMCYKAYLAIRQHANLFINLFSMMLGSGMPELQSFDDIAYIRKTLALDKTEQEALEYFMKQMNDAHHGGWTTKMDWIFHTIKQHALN
Sequence of PI3K-alpha (P27986 whole entry partner, species assumed): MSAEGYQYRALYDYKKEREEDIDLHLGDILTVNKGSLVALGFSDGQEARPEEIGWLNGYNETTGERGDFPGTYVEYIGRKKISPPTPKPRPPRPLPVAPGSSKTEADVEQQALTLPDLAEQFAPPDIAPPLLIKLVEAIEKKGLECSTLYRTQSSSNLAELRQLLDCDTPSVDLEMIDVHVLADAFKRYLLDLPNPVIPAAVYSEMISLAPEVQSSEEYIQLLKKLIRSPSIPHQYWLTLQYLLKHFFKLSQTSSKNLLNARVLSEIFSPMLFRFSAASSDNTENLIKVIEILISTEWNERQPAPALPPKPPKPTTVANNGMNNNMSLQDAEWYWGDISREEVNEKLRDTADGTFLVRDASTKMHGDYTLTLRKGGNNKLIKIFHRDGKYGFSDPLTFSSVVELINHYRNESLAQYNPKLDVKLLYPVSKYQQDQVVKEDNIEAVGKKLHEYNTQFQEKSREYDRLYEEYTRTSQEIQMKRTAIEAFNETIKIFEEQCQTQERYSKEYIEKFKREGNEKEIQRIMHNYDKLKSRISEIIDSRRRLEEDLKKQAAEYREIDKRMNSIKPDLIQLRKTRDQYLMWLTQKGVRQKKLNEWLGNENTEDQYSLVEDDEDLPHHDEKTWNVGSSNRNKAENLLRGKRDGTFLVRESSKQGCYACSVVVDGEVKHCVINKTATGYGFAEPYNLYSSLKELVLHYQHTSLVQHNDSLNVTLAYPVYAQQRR
Sequence of PI3K-gamma (P48736 whole entry, species assumed, the tested form may be a part, canonical isoform): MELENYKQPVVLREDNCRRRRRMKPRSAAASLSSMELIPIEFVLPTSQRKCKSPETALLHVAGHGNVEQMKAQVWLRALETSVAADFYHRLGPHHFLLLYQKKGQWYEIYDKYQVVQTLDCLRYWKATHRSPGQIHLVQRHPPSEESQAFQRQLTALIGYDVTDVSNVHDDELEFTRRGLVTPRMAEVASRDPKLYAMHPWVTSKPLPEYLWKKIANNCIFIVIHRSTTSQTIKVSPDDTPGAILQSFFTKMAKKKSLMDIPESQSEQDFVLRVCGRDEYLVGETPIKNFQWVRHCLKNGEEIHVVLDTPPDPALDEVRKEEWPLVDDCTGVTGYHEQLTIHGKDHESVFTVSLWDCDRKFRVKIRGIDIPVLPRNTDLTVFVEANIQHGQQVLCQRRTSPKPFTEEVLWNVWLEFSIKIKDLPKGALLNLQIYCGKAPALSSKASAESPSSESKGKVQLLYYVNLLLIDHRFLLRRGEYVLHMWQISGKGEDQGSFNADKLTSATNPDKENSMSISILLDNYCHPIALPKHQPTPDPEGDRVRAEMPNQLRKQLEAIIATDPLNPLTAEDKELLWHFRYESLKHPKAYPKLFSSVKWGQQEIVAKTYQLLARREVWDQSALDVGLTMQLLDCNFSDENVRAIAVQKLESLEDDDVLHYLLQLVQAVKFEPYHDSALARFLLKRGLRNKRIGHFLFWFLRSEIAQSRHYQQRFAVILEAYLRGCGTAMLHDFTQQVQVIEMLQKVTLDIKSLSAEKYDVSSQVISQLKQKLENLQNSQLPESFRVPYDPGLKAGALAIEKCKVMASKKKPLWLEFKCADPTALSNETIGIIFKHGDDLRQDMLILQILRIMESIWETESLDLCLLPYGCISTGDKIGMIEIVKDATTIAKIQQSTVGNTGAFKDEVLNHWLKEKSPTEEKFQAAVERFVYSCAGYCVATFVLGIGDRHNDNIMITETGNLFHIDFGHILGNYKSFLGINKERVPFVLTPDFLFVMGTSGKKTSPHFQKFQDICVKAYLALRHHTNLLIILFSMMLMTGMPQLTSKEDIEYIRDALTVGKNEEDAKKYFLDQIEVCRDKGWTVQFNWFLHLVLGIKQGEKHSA

Row | Structure (SMILES) | IC50 [1] | IC50 [2] | IC50 [3]
1 | Cn1cc(/C=C2\Oc3cc(O)cc(O)c3C2=O)c2c(-c3ccc(C#N)cc3)cccc21 [Example 368, 4-{3-[(Z)-(4,6-Dihydroxy-3-oxo-1-benzofuran-2(3H)-ylidene)methyl]-1-methyl-1H-indol-4-yl}benzonitrile] | 44.5 nM | 1000 nM | 4570 nM
2 | O=C1C(=Cc2c[nH]c3c(OCc4ccccc4)cccc23)Oc2cc(O)cc(O)c21 [Example 242, 2-{[7-(benzyloxy)-1H-indol-3-yl]methylene}-4,6-dihydroxy-1-benzofuran-3(2H)-one] | > 20000 nM | 1000 nM | > 10000 nM
3 | CNC(=O)Nc1ccc2c(c1)C(=O)/C(=C/c1c(C3CCCCC3)[nH]c3ccc(OC)cc13)O2 [Compound 641, 1-{(2Z)-2-[(2-cyclohexyl-5-methoxy-1H-indol-3-yl)methylene]-3-oxo-2,3-dihydro-1-benzofuran-5-yl}-3-methylurea] | 10 nM | 1.6 nM | 8 nM
4 | COc1cc(F)c2[nH]c(-c3c(C)nn(C)c3C)c(/C=C3\Oc4ccc(NC(=O)Nc5ccc(C(=O)N6CCC(N(C)C)C6)cc5)cc4C3=O)c2c1 (stereo not drawn) [Compound 732, 1-(4-{[3-(dimethylamino)pyrrolidin-1-yl]carbonyl}phenyl)-3-[(2Z)-2-{[7-fluoro-5-methoxy-2-(1,3,5-trimethyl-1H-pyrazol-4-yl)-1H-indol-3-yl]methylidene}-3-oxo-2,3-dihydro-1-benzofuran-5-yl]urea] | 1 nM | 0.33 nM | 1.9 nM
5 | CCn1c(C)c(/C=C2\Oc3ccc(NC(=O)Nc4ccc(CN(C)C)cc4)cc3C2=O)c2cc(OC)ccc21 [Compound 719, 1-{4-[(dimethylamino)methyl]phenyl}-3-{(2Z)-2-[(1-ethyl-5-methoxy-2-methyl-1H-indol-3-yl)methylidene]-3-oxo-2,3-dihydro-1-benzofuran-5-yl}urea] | 275 nM | 3.1 nM | 41.5 nM
6 | COc1ccc2c(c1)c(/C=C1\Oc3cc(O)cc(O)c3C1=O)c(C1CC1)n2CC(=O)N(C)C [Example 444, 2-{2-Cyclopropyl-3-[(Z)-(4,6-dihydroxy-3-oxo-1-benzofuran-2(3H)-ylidene)methyl]-5-methoxy-1H-indol-1-yl}-N,N-dimethylacetamide] | 12.3 nM | 65.5 nM | 100 nM
7 | CNC(=O)Nc1ccc2c(c1)C(=O)/C(=C/c1c(N3CCN(C)CC3)n(CCN3CCN(C)CC3)c3ccc(OC)cc13)O2 [Compound 636, 1-[(2Z)-2-({5-methoxy-2-(4-methylpiperazin-1-yl)-1-[2-(4-methylpiperazin-1-yl)ethyl]-1H-indol-3-yl}methylene)-3-oxo-2,3-dihydro-1-benzofuran-5-yl]-3-methylurea] | 165 nM | 4 nM | 1010 nM
8 | COc1ccc2c(c1)c(/C=C1\Oc3cc(-c4cnc(N)nc4)ccc3C1=O)cn2CCCN(C)C [Example 427, (2Z)-6-(2-Aminopyrimidin-5-yl)-2-({1-[3-(dimethylamino)propyl]-5-methoxy-1H-indol-3-yl}methylene)-1-benzofuran-3(2H)-one] | > 20000 nM | 9530 nM | 3030 nM
9 | COc1ccc2[nH]cc(C=C3Oc4cc(SC)ccc4C3=O)c2c1 [Example 434, 2-[(5-Methoxy-1H-indol-3-yl)methylene]-6-(methylthio)-1-benzofuran-3(2H)-one] | > 20000 nM | > 10000 nM | > 10000 nM
10 | COc1ccc2c(c1)c(/C=C1\Oc3cc(O)c(Cl)cc3C1=O)c(C)n2CCN1CCN(C)CC1 [Example 456, (2Z)-5-Chloro-6-hydroxy-2-({5-methoxy-2-methyl-1-[2-(4-methylpiperazin-1-yl)ethyl]-1H-indol-3-yl}methylene)-1-benzofuran-3(2H)-one] | > 20000 nM | 90.5 nM | 4600 nM
11 | COc1ccc2[nH]c(-c3c(C)nn(C)c3C)c(/C=C3\Oc4ccc(NC(=O)Nc5ccc(C(=O)N(C)CCN6CCCC6)cc5)cc4C3=O)c2c1 [Compound 701, 4-({[(2Z)-2-{[5-methoxy-2-(1,3,5-trimethyl-1H-pyrazol-4-yl)-1H-indol-3-yl]methylidene}-3-oxo-2,3-dihydro-1-benzofuran-5-yl]carbamoyl}amino)-N-methyl-N-(2-pyrrolidin-1-ylethyl)benzamide] | 1 nM | 0.3 nM | 3 nM
12 | COc1ccc2c(c1)c(/C=C1\Oc3ccc(NC(=O)Nc4cccnc4)cc3C1=O)c(C)n2CCN1CCN(C)CC1 [Compound 617, 1-[(2Z)-2-({5-methoxy-2-methyl-1-[2-(4-methylpiperazin-1-yl)ethyl]-1H-indol-3-yl}methylidene)-3-oxo-2,3-dihydro-1-benzofuran-5-yl]-3-pyridin-3-ylurea] | 58 nM | 1.9 nM | 246 nM
13 | COc1ccc2c(c1)c(/C=C1\Oc3ccc(NC(=O)Nc4ccc(C(=O)N5CCOCC5)cc4)cc3C1=O)c(C)n2CCN1CCN(C)CC1 [Compound 687, 1-[(2Z)-2-({5-methoxy-2-methyl-1-[2-(4-methylpiperazin-1-yl)ethyl]-1H-indol-3-yl}methylidene)-3-oxo-2,3-dihydro-1-benzofuran-5-yl]-3-[4-(morpholin-4-ylcarbonyl)phenyl]urea] | 87 nM | 1.1 nM | 44 nM
14 | N#CCCCn1c(-c2ccccc2)c(C=C2Oc3cc(O)cc(O)c3C2=O)c2ccccc21 [Example 155, 4-{3-[(4,6-dihydroxy-3-oxo-1-benzofuran-2(3H)-ylidene)methyl]-2-phenyl-1H-indol-1-yl}butanenitrile] | 80 nM | 516 nM | 5350 nM
15 | O=C1C(=Cc2c[nH]c3cc(Br)ccc23)Oc2cc(O)cc(O)c21 [Example 143, 2-[(6-bromo-1H-indol-3-yl)methylene]-4,6-dihydroxy-1-benzofuran-3(2H)-one] | 4450 nM | 1850 nM | 6660 nM
16 | COc1ccc2[nH]cc(/C=C3\Oc4ccc(NC(=O)Nc5ccc(C(=O)N6CCN(C)CC6)cc5)cc4C3=O)c2c1 [Compound 643, 1-{(2Z)-2-[(5-methoxy-1H-indol-3-yl)methylene]-3-oxo-2,3-dihydro-1-benzofuran-5-yl}-3-{4-[(4-methylpiperazin-1-yl)carbonyl]phenyl}urea] | > 4000 nM | 0.9 nM | 4 nM
17 | Cn1cc(/C=C2\Oc3cc(O)cc(O)c3C2=O)c2c(-c3ccoc3)cccc21 [Example 378, (2Z)-2-{[4-(3-Furyl)-1-methyl-1H-indol-3-yl]methylene}-4,6-dihydroxy-1-benzofuran-3(2H)-one] | 107 nM | 971 nM | 3400 nM
18 | COc1ccc2c(c1)c(/C=C1\Oc3cc(O)c(C)cc3C1=O)c(C)n2CCN1CCN(C)CC1 [Example 458, (2Z)-6-Hydroxy-2-({5-methoxy-2-methyl-1-[2-(4-methylpiperazin-1-yl)ethyl]-1H-indol-3-yl}methylene)-5-methyl-1-benzofuran-3(2H)-one] | > 20000 nM | 134 nM | 4350 nM
19 | Cn1c(-c2ccccc2)c(/C=C2\Oc3cc(O)cc(O)c3C2=O)c2c(C#N)cccc21 [Example 437, 3-[(Z)-(4,6-dihydroxy-3-oxo-1-benzofuran-2(3H)-ylidene)methyl]-1-methyl-2-phenyl-1H-indole-4-carbonitrile] | < 23 nM | 1600 nM | > 10000 nM
